Values of other authors as cited in US20240173272A1 (LUPIN ATLANTIS HOLDINGS SA, priority 2021, published 2024).

Key:
[1] = oral administration
[2] = weak base

bioavailability [1]: about 90%
pKa [2]: about 9.1
SMILES: Cc1cccc(C)c1OCC(C)N (centres unmarked) [Mexiletine]
